Results on six molecules are retold here after patent publication US20260193264A1, “BENZOYPARAZINE PYRAZINES AND THEIR USES” (FOGHORN THERAPEUTICS INC., priority 2022, published 2026).

Experiment [1] has as its target T1, HiBiT-BRM fusion protein in stable HeLa cell line (Homo sapiens, UniProt P51531).
T1 construct: expressed in transfected cells
Put plainly: HiBiT-BRM cell-based degradation assay (Nano-Glo HiBiT Lytic Detection, 24 h). Details: DC50: scale not given here. The settings on record: HeLa HiBiT-BRM cells; for DC50: read-out: BRM HiBit Degradation IC50; for BRM HiBit Degradation Maximum (%): top dose 30 μM. Summed up:
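Stable HiBiT-BRM HeLa cells treated 24 h with 10-point 3-fold dilutions, top final dose 30 μM, in duplicate. Luminescence read after lytic LgBiT reagent. Percent degradation was normalised to DMSO (high control) and 2 μM reference BRM/BRG1 degrader (low control).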
(The HiBiT peptide binds its large partner to form an active luciferase.)

The target in experiment [2] is T2, HiBit-BRG1 fusion protein in stable HeLa cell line expressing HiBit-BRG1 and LgBit (Homo sapiens, UniProt P51532).
T2 construct: expressed in transfected cells
T2 sequence (P51532 whole entry, the tested form may be a part): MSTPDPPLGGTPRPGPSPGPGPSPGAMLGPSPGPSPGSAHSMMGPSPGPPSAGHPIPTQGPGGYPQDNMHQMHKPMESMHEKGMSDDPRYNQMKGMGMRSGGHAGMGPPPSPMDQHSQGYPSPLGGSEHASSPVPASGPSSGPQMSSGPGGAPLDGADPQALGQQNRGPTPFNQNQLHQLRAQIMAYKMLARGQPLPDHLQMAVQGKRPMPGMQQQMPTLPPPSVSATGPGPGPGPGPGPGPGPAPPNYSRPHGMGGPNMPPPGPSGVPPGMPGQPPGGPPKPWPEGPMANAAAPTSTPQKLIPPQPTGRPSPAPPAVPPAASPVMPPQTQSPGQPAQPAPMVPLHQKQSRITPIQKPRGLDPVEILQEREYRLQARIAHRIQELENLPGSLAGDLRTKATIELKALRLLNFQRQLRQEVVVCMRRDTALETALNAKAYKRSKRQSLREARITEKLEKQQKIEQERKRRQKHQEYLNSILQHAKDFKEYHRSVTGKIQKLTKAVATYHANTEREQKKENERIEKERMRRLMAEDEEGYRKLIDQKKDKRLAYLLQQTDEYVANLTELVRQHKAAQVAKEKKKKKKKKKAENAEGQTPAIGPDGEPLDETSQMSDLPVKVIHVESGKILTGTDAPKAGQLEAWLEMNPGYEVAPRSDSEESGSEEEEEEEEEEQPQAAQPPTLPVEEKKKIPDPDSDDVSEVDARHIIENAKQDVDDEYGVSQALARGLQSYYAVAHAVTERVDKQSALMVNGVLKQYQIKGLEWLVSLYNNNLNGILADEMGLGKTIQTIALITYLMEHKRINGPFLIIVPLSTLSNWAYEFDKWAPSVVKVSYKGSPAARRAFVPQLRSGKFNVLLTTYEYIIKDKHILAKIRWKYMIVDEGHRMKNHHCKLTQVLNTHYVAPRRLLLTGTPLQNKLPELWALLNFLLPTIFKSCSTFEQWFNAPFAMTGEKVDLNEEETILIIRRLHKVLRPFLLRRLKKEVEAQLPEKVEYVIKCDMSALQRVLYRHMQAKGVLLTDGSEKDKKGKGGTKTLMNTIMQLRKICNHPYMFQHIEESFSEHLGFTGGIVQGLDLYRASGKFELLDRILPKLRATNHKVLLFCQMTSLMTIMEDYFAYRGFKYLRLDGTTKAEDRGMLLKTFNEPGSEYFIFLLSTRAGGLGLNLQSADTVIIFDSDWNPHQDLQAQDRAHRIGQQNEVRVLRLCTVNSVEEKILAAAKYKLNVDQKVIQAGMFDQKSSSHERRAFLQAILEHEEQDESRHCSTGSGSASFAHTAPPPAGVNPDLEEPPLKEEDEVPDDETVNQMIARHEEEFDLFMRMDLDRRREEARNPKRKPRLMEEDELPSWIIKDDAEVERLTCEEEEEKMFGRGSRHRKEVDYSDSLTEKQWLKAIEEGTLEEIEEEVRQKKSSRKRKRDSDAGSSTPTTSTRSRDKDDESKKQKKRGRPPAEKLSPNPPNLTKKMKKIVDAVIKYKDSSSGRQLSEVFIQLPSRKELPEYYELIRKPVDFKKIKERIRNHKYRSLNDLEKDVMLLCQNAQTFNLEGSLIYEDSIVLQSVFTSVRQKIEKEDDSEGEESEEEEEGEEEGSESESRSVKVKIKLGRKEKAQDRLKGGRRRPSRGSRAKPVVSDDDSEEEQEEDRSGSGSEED
The experiment in a line: HiBiT-BRG1 cell-based degradation assay (Nano-Glo HiBiT, 24 h). The settings on record: HeLa HiBit-BRG1/LgBit cells; for DC50: read-out: BRMG1 HiBit Degradation IC50; for Dmax: top dose 30 μM, read-out: BRG1 HiBit Degradation Maximum (%). Summed up:
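Stable HeLa line co-expressing HiBiT-BRG1 and LgBiT, compound-treated 24 h; luminescence read after Nano-Glo HiBiT lytic reagent. % degradation normalised between DMSO (high control) and 2 μM reference BRM/BRG1 degrader (low control).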

T1 sequence (P51531 whole entry, the tested form may be a part): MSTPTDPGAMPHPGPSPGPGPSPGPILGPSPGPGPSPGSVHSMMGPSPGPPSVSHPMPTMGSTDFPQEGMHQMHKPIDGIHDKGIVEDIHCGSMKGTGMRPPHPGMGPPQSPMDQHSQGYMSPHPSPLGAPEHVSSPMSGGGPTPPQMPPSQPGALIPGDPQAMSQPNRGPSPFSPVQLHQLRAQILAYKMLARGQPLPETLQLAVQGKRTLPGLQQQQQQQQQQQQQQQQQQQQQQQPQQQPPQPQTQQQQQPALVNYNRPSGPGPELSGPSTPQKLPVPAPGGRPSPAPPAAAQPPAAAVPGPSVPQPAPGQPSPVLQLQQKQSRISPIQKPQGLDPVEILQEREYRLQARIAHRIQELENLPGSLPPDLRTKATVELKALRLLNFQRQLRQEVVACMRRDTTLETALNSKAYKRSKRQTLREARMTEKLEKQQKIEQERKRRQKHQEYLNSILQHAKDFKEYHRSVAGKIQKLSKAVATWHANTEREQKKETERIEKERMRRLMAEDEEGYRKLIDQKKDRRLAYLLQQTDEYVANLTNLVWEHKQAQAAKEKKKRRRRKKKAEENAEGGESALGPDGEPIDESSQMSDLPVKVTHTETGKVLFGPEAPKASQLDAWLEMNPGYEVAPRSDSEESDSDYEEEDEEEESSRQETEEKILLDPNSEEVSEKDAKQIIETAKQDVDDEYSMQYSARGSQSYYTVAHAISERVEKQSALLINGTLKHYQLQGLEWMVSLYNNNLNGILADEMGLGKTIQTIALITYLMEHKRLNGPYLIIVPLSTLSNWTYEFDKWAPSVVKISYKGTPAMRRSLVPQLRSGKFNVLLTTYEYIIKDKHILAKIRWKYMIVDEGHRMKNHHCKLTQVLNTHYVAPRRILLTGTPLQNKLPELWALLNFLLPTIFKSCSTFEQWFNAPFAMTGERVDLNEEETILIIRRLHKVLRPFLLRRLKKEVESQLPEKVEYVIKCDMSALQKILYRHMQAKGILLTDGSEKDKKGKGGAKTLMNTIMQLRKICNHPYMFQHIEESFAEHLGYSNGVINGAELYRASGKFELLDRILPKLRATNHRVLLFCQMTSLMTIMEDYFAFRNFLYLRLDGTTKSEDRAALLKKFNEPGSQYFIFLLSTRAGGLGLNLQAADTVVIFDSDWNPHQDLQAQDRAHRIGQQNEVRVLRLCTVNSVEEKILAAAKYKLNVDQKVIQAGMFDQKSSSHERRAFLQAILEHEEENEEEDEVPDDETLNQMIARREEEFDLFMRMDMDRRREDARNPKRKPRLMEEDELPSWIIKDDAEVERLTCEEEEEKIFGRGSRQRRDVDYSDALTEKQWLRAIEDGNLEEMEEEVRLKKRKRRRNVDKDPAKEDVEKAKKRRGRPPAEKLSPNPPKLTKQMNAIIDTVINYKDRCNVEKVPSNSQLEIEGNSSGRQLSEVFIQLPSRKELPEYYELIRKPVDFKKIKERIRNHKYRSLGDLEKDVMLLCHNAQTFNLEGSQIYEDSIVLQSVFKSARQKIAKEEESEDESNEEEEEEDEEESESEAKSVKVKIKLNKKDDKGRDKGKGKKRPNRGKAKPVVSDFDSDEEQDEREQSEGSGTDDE

Turning to `Cc1ncsc1-c1ccc([C@H](C)NC(=O)[C@@H]2C[C@@H](O)CN2C(=O)[C@@H](c2cc(N3CC4(CC(Oc5ccc6nnc(-c7ccccc7O)cc6c5)C4)C3)no2)C(C)C)cc1` [Compound 184, (2S,4R)-4-hydroxy-1-((R)-2-(3-(6-((3-(2-hydroxyphenyl)cinnolin-6-yl)oxy)-2-azaspiro[3.3]heptan-2-yl)isoxazol-5-yl)-3-methylbutanoyl)-N-((S)-1-(4-(4-methylthiazol-5-yl)phenyl)ethyl)pyrrolidine-2-carboxamide], in experiment [1], the DC50 is less than 10 nM and the “BRM HiBit Degradation Maximum (%)” value was “A (“A” indicates maximum degradation ≥75%)”. In experiment [2], the DC50 is more than 10 nM and the Dmax was more than 50%.
With `Cc1ncsc1-c1ccc([C@H](C)NC(=O)[C@@H]2C[C@@H](O)CN2C(=O)[C@H](C(C)C)n2cc(-c3ccc4nnc(-c5ccccc5O)cc4c3C)nn2)cc1` [Compound 203, (2S,4R)-4-hydroxy-1-((S)-2-(4-(3-(2-hydroxyphenyl)-5-methylcinnolin-6-yl)-1H-1,2,3-triazol-1-yl)-3-methylbutanoyl)-N-((S)-1-(4-(4-methylthiazol-5-yl)phenyl)ethyl)pyrrolidine-2-carboxamide], in experiment [1], the DC50 is more than 10 nM and the “BRM HiBit Degradation Maximum (%)” value is reported as “A (“A” indicates maximum degradation ≥75%)”. Moreover, the Dmax in experiment [2] is less than 50%.
The matching figures for `Cc1ncsc1-c1ccc([C@H](C)NC(=O)[C@@H]2C[C@@H](O)CN2C(=O)[C@@H](c2cc(OCCN3CC(c4ccc5cc(-c6ccccc6O)nnc5c4)C3)no2)C(C)C)cc1` [Compound 8, (2S,4R)-4-hydroxy-1-[(2R)-2-[3-(2-{3-[3-(2-hydroxyphenyl)cinnolin-7-yl]azetidin-1-yl}ethoxy)-1,2-oxazol-5-yl]-3-methylbutanoyl]-N-[(1S)-1-[4-(4-methyl-1,3-thiazol-5-yl)phenyl]ethyl]pyrrolidine-2-carboxamide]: less than 10 nM, “A (“A” indicates maximum degradation ≥75%)” and more than 50%.
On to `Cc1ncsc1-c1ccc([C@H](C)NC(=O)[C@@H]2C[C@@H](O)CN2C(=O)[C@H](C(C)C)n2cc(C3CC4(CC(c5ccc6cc(-c7ccccc7O)nnc6c5)C4)C3)nn2)cc1` (stereo partly drawn) [Compound 208, (2S,4R)-4-hydroxy-1-[(2S)-2-(4-{6-[3-(2-hydroxyphenyl)cinnolin-7-yl]spiro[3.3]heptan-2-yl}-1,2,3-triazol-1-yl)-3-methylbutanoyl]-N-[(1S)-1-[4-(4-methyl-1,3-thiazol-5-yl)phenyl]ethyl]pyrrolidine-2-carboxamide], for which, in experiment [1], the DC50 was less than 10 nM and the “BRM HiBit Degradation Maximum (%)” value is “A (“A” indicates maximum degradation ≥75%)”. Moreover, in experiment [2], the DC50 is more than 10 nM and the Dmax is more than 75%.
`C#Cc1ccc([C@H](C)NC(=O)[C@@H]2C[C@@H](O)CN2C(=O)[C@@H](c2cc(N3CC4(CN(c5ccc6cc(-c7ccccc7O)nnc6c5)C4)C3)no2)C(C)C)cc1` [Compound 274, (2S,4R)-N-((S)-1-(4-ethynylphenyl)ethyl)-4-hydroxy-1-((R)-2-(3-(6-(3-(2-hydroxyphenyl)cinnolin-7-yl)-2,6-diazaspiro[3.3]heptan-2-yl)isoxazol-5-yl)-3-methylbutanoyl)pyrrolidine-2-carboxamide]: in experiment [1], the DC50 was less than 10 nM and the “BRM HiBit Degradation Maximum (%)” value is reported as “A (“A” indicates maximum degradation ≥75%)”. Also, in experiment [2], the Dmax is less than 50%.
Turning to `Cc1ncsc1-c1ccc([C@H](C)NC(=O)[C@@H]2C[C@@H](O)CN2C(=O)[C@@H](c2cc(N3CCC4(CC3)CN(c3ccc5nnc(-c6ccccc6O)cc5c3)C4)no2)C(C)C)cc1` [Compound 67, (2S,4R)-4-hydroxy-1-((R)-2-(3-(2-(3-(2-hydroxyphenyl)cinnolin-6-yl)-2,7-diazaspiro[3.5]nonan-7-yl)isoxazol-5-yl)-3-methylbutanoyl)-N-((S)-1-(4-(4-methylthiazol-5-yl)phenyl)ethyl)pyrrolidine-2-carboxamide], in experiment [1], the DC50 is less than 10 nM and the “BRM HiBit Degradation Maximum (%)” value is reported as “A (“A” indicates maximum degradation ≥75%)”. In experiment [2], the DC50 is more than 10 nM and the Dmax was more than 75%.
